Among the data in US12037340B2, “Pentacyclic derivatives as Zika virus inhibitors” (Gilead Sciences, Inc., priority 2021, dated 2024) are EC50 values, retold here.

The structures appear in SMILES notation.

This assay relates to ZIKV. As to the kind of experiment: microbe, parasite or virus in culture. The assay is classed as cell-based, Zika virus. To be noted: 48 hrs.

As usually defined, the EC50 is the concentration at which the effect is half-maximal. A higher EC50 goes with a less potent agent. For the setting “Zika virus, Huh-7”, `CC[C@H](C)[C@H](NC(=O)OC)C(=O)N1[C@@H](C)CC[C@H]1c1nc(C(C)C)c(-c2ccc3c(c2)COc2cc4c(ccc5nc([C@@H]6CC[C@H](C)N6C(=O)[C@@H](NC(=O)OC)[C@@H](C)CC)[nH]c54)cc2-3)[nH]1` [Compound 44, methyl ((2S,3S)-1-((2S,5S)-2-(4-isopropyl-5-(2-((2S,5S)-1-((methoxycarbonyl)-L-isoleucyl)-5-methylpyrrolidin-2-yl)-1,11-dihydroisochromeno[4′,3′:6,7]naphtho[1,2-d]imidazol-9-yl)-1H-imidazol-2-yl)-5-methylpyrrolidin-1-yl)-3-methyl-1-oxopentan-2-yl)carbamate] showed an EC50 of 11.5 nM. This lies in the double-digit nanomolar range.
Still for that read-out and setting: the value for `COC(=O)N[C@H](C(=O)N1[C@@H](C)CC[C@H]1c1nc(C2CC2)c(-c2ccc3c(c2)COc2cc4c(ccc5nc([C@@H]6CC[C@H](C)N6C(=O)[C@@H](NC(=O)OC)C(C)(C)CF)[nH]c54)cc2-3)[nH]1)C(C)(C)CF` [Compound 42, methyl ((S)-1-((2S,5S)-2-(4-cyclopropyl-5-(2-((2S,5S)-1-((S)-4-fluoro-2-((methoxycarbonyl)amino)-3,3-dimethylbutanoyl)-5-methylpyrrolidin-2-yl)-1,11-dihydroisochromeno[4′,3′:6,7]naphtho[1,2-d]imidazol-9-yl)-1H-imidazol-2-yl)-5-methylpyrrolidin-1-yl)-4-fluoro-3,3-dimethyl-1-oxobutan-2-yl)carbamate] was 21.4 nM.
Turning to `CC[C@H](C)[C@H](NC(=O)OC)C(=O)N1C[C@@H](COC)C[C@H]1c1nc(C#N)c(-c2ccc3c(c2)COc2cc4c(ccc5nc([C@@H]6CC[C@H](C)N6C(=O)[C@@H](NC(=O)OC)C(C)C)[nH]c54)cc2-3)[nH]1` [Compound 16, methyl ((S)-1-((2S,5S)-2-(9-(4-cyano-2-((2S,4S)-1-((methoxycarbonyl)-L-isoleucyl)-4-(methoxymethyl)pyrrolidin-2-yl)-1H-imidazol-5-yl)-1,11-dihydroisochromeno[4′,3′:6,7]naphtho[1,2-d]imidazol-2-yl)-5-methylpyrrolidin-1-yl)-3-methyl-1-oxobutan-2-yl)carbamate], where the note is “Zika virus, Huh-7”, the midpoint of the response, the EC50, lay at 43.4 nM.
Same read-out and setting: as for `COC(=O)N[C@H](C(=O)N1[C@@H](C)CC[C@H]1c1nc(C(C)C)c(-c2ccc3c(c2)COc2cc4c(ccc5nc([C@@H]6CC[C@H](C)N6C(=O)[C@@H](NC(=O)OC)C(C)(C)CF)[nH]c54)cc2-3)[nH]1)C(C)(C)CF` [Compound 47, methyl ((S)-4-fluoro-1-((2S,5S)-2-(5-(2-((2S,5S)-1-((S)-4-fluoro-2-((methoxycarbonyl)amino)-3,3-dimethylbutanoyl)-5-methylpyrrolidin-2-yl)-1,11-dihydroisochromeno[4′,3′:6,7]naphtho[1,2-d]imidazol-9-yl)-4-isopropyl-1H-imidazol-2-yl)-5-methylpyrrolidin-1-yl)-3,3-dimethyl-1-oxobutan-2-yl)carbamate], the figure is 21.7 nM.
As to `COC[C@H]1C[C@@H](c2nc(Br)c(-c3ccc4c(c3)COc3cc5c(ccc6nc([C@@H]7CC[C@H](C)N7C(=O)[C@@H](NC(=O)OC)C(C)C)[nH]c65)cc3-4)[nH]2)N(C(=O)[C@@H](NC(=O)OC)C(C)C)C1` [Compound 8, methyl ((S)-1-((2S,5S)-2-(9-(4-bromo-2-((2S,4S)-1-((methoxycarbonyl)-L-valyl)-4-(methoxymethyl)pyrrolidin-2-yl)-1H-imidazol-5-yl)-1,11-dihydroisochromeno[4′,3′:6,7]naphtho[1,2-d]imidazol-2-yl)-5-methylpyrrolidin-1-yl)-3-methyl-1-oxobutan-2-yl)carbamate], the EC50 (Zika virus, Huh-7) stood at 24.1 nM. The EC50 values of the last two compounds are within 1.5-fold of each other.
In turn, `CC[C@H](C)[C@H](NC(=O)OC)C(=O)N1[C@@H](C)CC[C@H]1c1nc(Cl)c(-c2ccc3c(c2)COc2cc4c(ccc5nc([C@@H]6CC[C@H](C)N6C(=O)[C@@H](NC(=O)OC)[C@@H](C)CC)[nH]c54)cc2-3)[nH]1` [Compound 22, methyl ((2S,3S)-1-((2S,5S)-2-(4-chloro-5-(2-((2S,5S)-1-((methoxycarbonyl)-L-isoleucyl)-5-methylpyrrolidin-2-yl)-1,11-dihydroisochromeno[4′,3′:6,7]naphtho[1,2-d]imidazol-9-yl)-1H-imidazol-2-yl)-5-methylpyrrolidin-1-yl)-3-methyl-1-oxopentan-2-yl)carbamate] showed an EC50 (Zika virus, Huh-7) of 10.8 nM.
Take `COC(=O)N[C@H](C(=O)N1[C@H](c2nc(Cl)c(-c3ccc4c(c3)COc3cc5ccc6[nH]c([C@@H]7C[C@@H]8CCC[C@@H]8N7C(=O)[C@@H](NC(=O)OC)C(C)(C)C(F)(F)F)nc6c5cc3-4)[nH]2)C[C@@H]2CCC[C@@H]21)C(C)(C)C(F)(F)F` [Compound 37, methyl ((S)-1-((2S,3aS,6aS)-2-(4-chloro-5-(2-((2S,3aS,6aS)-1-((S)-4,4,4-trifluoro-2-((methoxycarbonyl)amino)-3,3-dimethylbutanoyl)octahydrocyclopenta[b]pyrrol-2-yl)-1,11-dihydroisochromeno[4′,3′:6,7]naphtho[1,2-d]imidazol-9-yl)-1H-imidazol-2-yl)hexahydrocyclopenta[b]pyrrol-l(2H)-yl)-4,4,4-trilluoro-3,3-dimethyl-1-oxobutan-2-yl)carbamate]: the EC50 came out at 13.3 nM.
As for `COC(=O)N[C@H](C(=O)N1CC2(CC2)C[C@H]1c1nc(Cl)c(-c2ccc3c(c2)COc2cc4c(ccc5nc([C@@H]6CC7(CC7)CN6C(=O)[C@@H](NC(=O)OC)C(C)(C)C(F)(F)F)[nH]c54)cc2-3)[nH]1)C(C)(C)C(F)(F)F` [Compound 4, methyl ((S)-1-((S)-6-(4-chloro-5-(2-((S)-5-((S)-4,4,4-trifluoro-2-((methoxycarbonyl)amino)-3,3-dimethylbutanoyl)-5-azaspiro[2.4]heptan-6-yl)-1,11-dihydroisochromeno[4′,3′:6,7]naphtho[1,2-d]imidazol-9-yl)-1H-imidazol-2-yl)-5-azaspiro[2.4]heptan-5-yl)-4,4,4-trilluoro-3,3-dimethyl-1-oxobutan-2-yl)carbamate], the response was half-maximal at 8.7 nM (EC50).
`COC(=O)N[C@H](C(=O)N1[C@H](c2nc(Cl)c(-c3ccc4c(c3)COc3cc5c(ccc6nc([C@@H]7C[C@@H]8CCC[C@@H]8N7C(=O)[C@@H](NC(=O)OC)C7C[C@@H](C)O[C@H](C)C7)[nH]c65)cc3-4)[nH]2)C[C@@H]2CCC[C@@H]21)C1C[C@@H](C)O[C@H](C)C1` (stereo partly drawn) [Compound 36, methyl ((S)-2-((2S,3aS,6aS)-2-(4-chloro-5-(2-((2S,3aS,6aS)-1-((S)-2-((2R,6R)-2,6-dimethyltetrahydro-2H-pyran-4-yl)-2-((methoxycarbonyl)amino)acetyl)octahydrocyclopenta[b]pyrrol-2-yl)-1,11-dihydroisochromeno[4′,3′:6,7]naphtho[1,2-d]imidazol-9-yl)-1H-imidazol-2-yl)hexahydrocyclopenta[b]pyrrol-l(2H)-yl)-1-((2R,6R)-2,6-dimethyltetrahydro-2H-pyran-4-yl)-2-oxoethyl)carbamate] registered an EC50 of 46.9 nM.
Compound `COC[C@H]1C[C@@H](c2nc(C#N)c(-c3ccc4c(c3)COc3cc5c(ccc6nc([C@@H]7CC[C@H](C)N7C(=O)[C@@H](NC(=O)OC)C(C)C)[nH]c65)cc3-4)[nH]2)N(C(=O)[C@@H](NC(=O)OC)C(C)C)C1` [Compound 13, methyl ((S)-1-((2S,5S)-2-(9-(4-cyano-2-((2S,4S)-1-((methoxycarbonyl)-L-valyl)-4-(methoxymethyl)pyrrolidin-2-yl)-1H-imidazol-5-yl)-1,11-dihydroisochromeno[4′,3′:6,7]naphtho[1,2-d]imidazol-2-yl)-5-methylpyrrolidin-1-yl)-3-methyl-1-oxobutan-2-yl)carbamate] gave an EC50 (Zika virus, Huh-7) of 51.6 nM.
